Data as given in patent publication US20260042762A1 (Kymera Therapeutics, Inc., priority 2018, published 2026).

Each compound was assayed against T1, MerTK (Homo sapiens, UniProt Q12866) (assay: MerTk degradation in Jurkat cells (Western blot)). Details: 0.001-1 μM, 4 hour-incubation at 37° C., read-out: Jurkat Max % MerTK Degradation.
T1 construct: endogenous in cells; host or cells: Jurkat cells
T1 sequence (Q12866 21-999): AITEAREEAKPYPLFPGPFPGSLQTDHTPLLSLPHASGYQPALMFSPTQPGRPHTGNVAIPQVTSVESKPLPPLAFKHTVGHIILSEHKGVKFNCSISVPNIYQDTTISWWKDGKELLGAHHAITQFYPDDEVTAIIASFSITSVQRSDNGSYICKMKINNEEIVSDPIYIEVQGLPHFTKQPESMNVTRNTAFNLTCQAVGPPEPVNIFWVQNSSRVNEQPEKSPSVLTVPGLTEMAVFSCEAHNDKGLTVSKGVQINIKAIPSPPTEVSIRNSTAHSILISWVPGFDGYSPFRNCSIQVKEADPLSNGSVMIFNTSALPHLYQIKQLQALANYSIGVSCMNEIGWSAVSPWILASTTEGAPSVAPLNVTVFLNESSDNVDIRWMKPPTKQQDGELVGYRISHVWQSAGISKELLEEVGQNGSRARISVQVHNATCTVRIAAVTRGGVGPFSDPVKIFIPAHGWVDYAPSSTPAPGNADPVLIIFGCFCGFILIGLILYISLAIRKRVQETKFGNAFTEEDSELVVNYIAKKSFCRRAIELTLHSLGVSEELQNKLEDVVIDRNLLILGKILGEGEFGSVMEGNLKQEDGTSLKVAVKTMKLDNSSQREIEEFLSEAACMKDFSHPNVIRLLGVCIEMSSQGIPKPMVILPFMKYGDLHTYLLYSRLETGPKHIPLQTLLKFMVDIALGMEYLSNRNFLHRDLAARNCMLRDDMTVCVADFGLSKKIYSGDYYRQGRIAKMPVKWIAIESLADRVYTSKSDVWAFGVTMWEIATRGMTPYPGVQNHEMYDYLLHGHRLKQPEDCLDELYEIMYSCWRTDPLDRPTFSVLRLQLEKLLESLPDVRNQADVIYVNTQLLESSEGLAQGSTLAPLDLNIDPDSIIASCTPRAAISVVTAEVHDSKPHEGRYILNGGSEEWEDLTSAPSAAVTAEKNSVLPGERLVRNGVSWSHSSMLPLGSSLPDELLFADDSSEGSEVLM
Assay type: cell-based
Summary of the method: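 Jurkat cells treated 4 h at 37 °C with compound at 0.001-1 μM final. RIPA lysates quantified by BCA, then MerTK probed by Western blot against actin loading control with IR-dye secondaries and Odyssey imaging.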
In the case of CCCCNc1ncc2c(-c3ccc(CN4CCN(CCCC(=O)NCCCOCCCOCCCc5cccc6c5n(C)c(=O)n6C5CCC(=O)NC5=O)CC4)cc3)cn([C@H]3CC[C@H](O)CC3)c2n1 (stereo partly drawn) [I-8, Trans-4-[4-([4-[2-(butylamino)-7-[4-hydroxycyclohexyl]-7H-pyrrolo[2,3-d]pyrimidin-5-yl]phenyl]methyl)piperazin-1-yl]-N-[3-(3-[3-[1-(2,6-dioxopiperidin-3-yl)-3-methyl-2-oxo-2,3-dihydro-1H-1,3-benzodiazol-4-yl]propoxy]propoxy)propyl]butanamide formic acid], the Dmax is reported as > 50%.

Same assay, conditions: Jurkat, 4 h, 0.001-1 μM, 4 hour-incubation at 37° C., read-out: Jurkat Max % MerTK Degradation
For C[C@H](CC(F)(F)F)Nc1ncc2c(-c3ccc(CN4CCN(C5CC(OCCc6ccc7c(c6)n(C)c(=O)n7C6CCC(=O)NC6=O)C5)CC4)cc3)cn([C@H]3CC[C@H](O)CC3)c2n1 (stereo partly drawn) [I-194, 3-[3-methyl-2-oxo-5-[2-(3-[4-[(4-[7-[trans-4-hydroxycyclohexy1]-2-[[(2R)-4,4,4-trifluorobutan-2-yl]amino]pyrrolo[2,3-d]pyrimidin-5-yl]phenyl)methyl]piperazin-1-yl]cyclobutoxy)ethyl]-1,3-benzodiazol-1-yl]piperidine-2,6-dione], the Dmax was > 50%.
With CN(C)c1cccc2c(S(=O)(=O)Nc3cccc(-c4cnc(NCCOCCN5CCN(Cc6ccc(-c7cn([C@H]8CC[C@H](O)CC8)c8nc(NCCC(F)(F)F)ncc78)cc6)CC5)nc4N4CCC(c5ccccc5)C4C(=O)O)c3)cccc12 (stereo partly drawn) [I-167, 1-(5-[3-[5-(Dimethylamino)naphthalene-1-sulfonamido]phenyl]-2-[[2-(2-[4-[(4-[7-[trans-4-hydroxycyclohexyl]-2-[(3,3,3-trifluoropropyl)amino]pyrrolo[2,3-d]pyrimidin-5-yl]phenyl)methyl]piperazin-1-yl]ethoxy)ethyl]amino]pyrimidin-4-yl)-3-phenylpyrrolidine-2-carboxylic acid] the Dmax was < 20%.
Cc1ncsc1-c1ccc(CNC(=O)[C@@H]2C[C@@H](O)CN2C(=O)[C@@H](NC(=O)C2(F)CC2)C(C)(C)C)c(OCCOCCOCCN2CCN(Cc3ccc(-c4cn([C@H]5CC[C@H](O)CC5)c5nc(NCCC(F)(F)F)ncc45)cc3)CC2)c1 [I-214, (2S,4R)-1-[(2S)-2-[(1-fluorocyclopropyl)formamido]-3,3-dimethylbutanoyl]-4-hydroxy-N-[[4-(4-methyl-1,3-thiazol-5-yl)-2-[2-[2-(2-[4-[(4-[7-[trans-4-hydroxycyclohexyl]-2-[(3,3,3-trifluoropropyl)amino]pyrrolo[2,3-d]pyrimidin-5-yl]phenyl)methyl]piperazin-1-yl]ethoxy)ethoxy]ethoxy]phenyl]methyl]pyrrolidine-2-carboxamide] was tested, and the Dmax was > 50%.
For CCCCNc1ncc2c(-c3ccc(CN4CCN(CCOCCCc5ccc6c(c5)n(C)c(=O)n6[C@H]5CCC(=O)NC5=O)CC4)cc3)cn([C@H]3CC[C@H](O)CC3)c2n1 [I-43, 3-[5-(3-[2-[4-([4-[2-(butylamino)-7-[trans-4-hydroxycyclohexy1]-7H-pyrrolo[2,3-d]pyrimidin-5-yl]phenyl]methyl)piperazin-1-y1]ethoxy]propyl)-3-methyl-2-oxo-2,3-dihydro-1H-1,3-benzodiazol-1-yl]piperidine-2,6-dione; formic acid], the Dmax was > 50%.
Cn1c(=O)n([C@H]2CCC(=O)NC2=O)c2ccc(COC3CCN(C4CCN(Cc5ccc(-c6cn([C@H]7CC[C@H](O)CC7)c7nc(NCCC(F)(F)F)ncc67)cc5)CC4)CC3)cc21 [I-157, 3-[3-methyl-2-oxo-5-[([1-[(4-[7-[trans-4-hydroxycyclohexy1]-2-[(3,3,3-trifluoropropyl)amino]pyrrolo[2,3-d]pyrimidin-5-yl]phenyl)methyl]-[1,4-bipiperidin]-4-yl]oxy)methyl]-1,3-benzodiazol-1-y1]piperidine-2,6-dione; formic acid] was tested, and the Dmax was > 50%.
With CN1CCN(Cc2ccc(-c3ccc(CO[C@H]4CCC[C@@H]4NC(=O)c4cc(-c5cnn(CCOCCOCCOCCCc6cccc7c6n(C)c(=O)n7C6CCC(=O)NC6=O)c5)cnc4N)cc3)cc2)CC1 (stereo partly drawn) [I-204, 2-Amino-5-(1-[2-[2-(2-[3-[1-(2,6-dioxopiperidin-3-yl)-3-methyl-2-oxo-1,3-benzodiazol-4-yl]propoxy]ethoxy)ethoxy]ethyl]pyrazol-4-yl)-N-[(1S,2S)-2-([4-[(4-methylpiperazin-1-yl)methyl]-[1,1-biphenyl]-4-yl]methoxy)cyclopentyl]pyridine-3-carboxamide] the Dmax was 20 to 50%.
With Cn1c(=O)n([C@H]2CCC(=O)NC2=O)c2ccc(CCCN3CCC(N4CCN(Cc5ccc(-c6cn([C@H]7CC[C@H](O)CC7)c7nc(NCCC(F)(F)F)ncc67)cc5)CC4)CC3)cc21 [I-117, 3-[3-methyl-2-oxo-5-[3-(4-[4-[(4-[7-[trans-4-hydroxycyclohexy1]-2-[(3,3,3-trifluoropropyl)amino]-7H-pyrrolo[2,3-d]pyrimidin-5-yl]phenyl)methyl]piperazin-1-yl]piperidin-1-y1)propyl]-2,3-dihydro-1H-1,3-benzodiazol-1-yl]piperidine-2,6-dione] the Dmax was > 50%.
CCCCNc1ncc2c(-c3ccc(S(=O)(=O)N4CCN(CCOCCOCCOCCOCCNc5cccc6c5n(C)c(=O)n6C5CCC(=O)NC5=O)CC4)cc3)cn([C@H]3CC[C@H](O)CC3)c2n1 (relative stereo) [I-35, Trans-3-[4-[15-(4-[4-[2-(butylamino)-7-[-4-hydroxycyclohexyl]-7H-pyrrolo[2,3-d]pyrimidin-5-yl]benzenesulfonyl]piperazin-1-yl)-4,7,10,13-tetraoxa-1-azapentadecan-1-yl]-3-methyl-2-oxo-2,3-dihydro-1H-1,3-benzodiazol-1-yl]piperidine-2,6-dione] was tested, and the Dmax was > 50%.
Cn1c(=O)n([C@H]2CCC(=O)NC2=O)c2ccc(CCO[C@H]3C[C@H](N4CCN(Cc5ccc(-c6cn([C@H]7CC[C@H](O)CC7)c7nc(NCCC(F)(F)F)ncc67)cc5)CC4)C3)cc21 [I-170, 3-(3-methyl-2-oxo-5-[2-[trans-3-[4-[(4-[7-[trans-4-hydroxycyclohexy1]-2-[(3,3,3-trifluoropropyl)amino]pyrrolo[2,3-d]pyrimidin-5-yl]phenyl)methyl]piperazin-1-yl]cyclobutoxy]ethyl]-1,3-benzodiazol-1-y1)piperidine-2,6-dione; formic acid] was tested, and the Dmax was > 50%.
For Cn1c(=O)n([C@H]2CCC(=O)NC2=O)c2ccc(CCCOCCOCCN3CCN(C[C@H]4CC[C@@H](c5cn([C@H]6CC[C@H](O)CC6)c6nc(NCCC(F)(F)F)ncc65)CC4)CC3)cc21 [I-153, 3-[3-methyl-2-oxo-5-(3-[2-[2-(4-[[(1s,4s)-4-[7-[trans-4-hydroxycyclohexyl]-2-[(3,3,3-trifluoropropyl)amino]pyrrolo[2,3-d]pyrimidin-5-yl]cyclohexyl]methyl]piperazin-1-yl)ethoxy]ethoxy]propyl)-1,3-benzodiazol-1-yl]piperidine-2,6-dione], the Dmax was > 50%.
For C[C@H]1CN(Cc2ccc(-c3cn([C@H]4CC[C@H](O)CC4)c4nc(NCCC(F)(F)F)ncc34)cc2)CCN1CCCOCCCc1ccc2c(c1)n(C)c(=O)n2C1CCC(=O)NC1=O (stereo partly drawn) [I-106, 3-[3-methyl-5-(3-[3-[(2S)-2-methyl-4-[(4-[7-[trans-4-hydroxycyclohexy1]-2-[(3,3,3-trifluoropropyl)amino]-7H-pyrrolo[2,3-d]pyrimidin-5-yl]phenyl)methyl]piperazin-1-yl]propoxy]propyl)-2-oxo-2,3-dihydro-1H-1,3-benzodiazol-1-yl]piperidine-2,6-dione; formic acid], the Dmax was > 50%.
CCCCNc1ncc2c(-c3ccc(C(C)N4CCN(CCCOCCCc5ccc6c(c5)n(C)c(=O)n6C5CCC(=O)NC5=O)CC4)cc3)cn([C@H]3CC[C@H](O)CC3)c2n1 (stereo partly drawn) [I-75, 3-[5-(3-[3-[4-(1-[4-[2-(butylamino)-7-[trans-4-hydroxycyclohexy1]-7H-pyrrolo[2,3-d]pyrimidin-5-yl]phenyl]ethyl)piperazin-1-yl]propoxy]propyl)-3-methyl-2-oxo-2,3-dihydro-1H-1,3-benzodiazol-1-yl]piperidine-2,6-dione; formic acid] was tested, and the Dmax was > 50%.
With CN1CCN(Cc2ccc(-c3ccc(CO[C@H]4CCC[C@@H]4NC(=O)c4cc(-c5cnn(CCOCCCc6ccc7c(c6)n(C)c(=O)n7C6CCC(=O)NC6=O)c5)cnc4N)cc3)cc2)CC1 (stereo partly drawn) [I-217, 2-Amino-5-[1-(2-[3-[1-(2,6-dioxopiperidin-3-yl)-3-methyl-2-oxo-1,3-benzodiazol-5-yl]propoxy]ethyl)pyrazol-4-yl]-N-[(1S,2S)-2-([4-[(4-methylpiperazin-1-yl)methyl]-[1,1-biphenyl]-4-yl]methoxy)cyclopentyl]pyridine-3-carboxamide] the Dmax was 20 to 50%.
